Data set [1] relates to HIV-1. The experiment in a line: CEM cell assay, anti-HIV-1 activity. It is filed as cell-based. Conditions: Human immunodeficiency virus 1, CCRF-CEM, HIV-1, 6 or 7 days, read-out: EC50 (Effective Concentration which protects cells from viral cytopathic effects). The source says: The test systems utilized to establish the antiviral activity of the arylthio compounds of this invention are well recognized in the art and are routinely employed for such purpose. For example, the assay utilized to evaluate the compounds activity against the HIV virus is that employed by the U.S. National Cancer Institute as described by Weislow O. S., et al., J. Natl. Cancer Inst., 1989;81:577-586, incorporated herein by reference.
The procedure is designed to detect agents acting at any stage of the virus reproductive cycle. The assay basically involves the killing of T4 lymphocytes by HIV. Small amounts of HIV are added to cells, and at least two complete cycles of virus reproduction are necessary to obtain the required cell killing. Agents which interact with virions, cells, or virus gene-products to interfere with viral activities will protect cells from cytolysis. The system is automated in several features to accommodate large numbers of candidate agents, and is generally designed to detect anti-HIV activity. However, compounds which degenerate or are rapidly metabolized in the culture conditions may not show activity in this screen.
(§1) Yet another test system employed to determine antiviral activity is called the CEM cell assay.
(§2) T4 lymphocytes (CEM cell line) are exposed to HIV at a virus to cell ratio approximately 0.05, and plated along with noninfected control cells in 96-well microliter plates.
(§3) The candidate agent is dissolved in dimethyl sulfoxide (unless otherwise noted), then diluted 1:200 in cell culture medium. Further dilutions (half-log10) are prepared before adding to an equal volume of medium containing either infected or noninfected cells. Cultures are incubated at 37° in a 5% carbon dioxide atmosphere for 6 or 7 days. The tetrazolium salt, XTT, is added to all wells, and cultures are incubated to allow formazan color development by viable cells (J. National Cancer Institute, 1989;81:577-586). Individual wells are analyzed spectrophotometrically to quantitate formazan production, and in addition are viewed microscopically for detection of viable cells confirmation of protective activity.
(§4) Drug-tested virus-infected cells are compared with drug-treated noninfected cells and with other appropriate controls (untreated infected and untreated noninfected cells, drug-contain wells without cells, etc.) on the same plate. Data are reviewed in comparison with other tests done at the same time and a determination about activity is made.

Data set [2] deals with T1, HIV-1 Nucleocapsid Protein (NCp7) (Human immunodeficiency virus type 1 group M subtype B, UniProt P12493).
T1 construct: The NCp7 protein containing 2 Zn-fingers and 2 Zn ions is incubated with drug
Put plainly: Zinc extrusion assay (TSQ fluorescence) from the zinc fingers of HIV-1 nucleocapsid protein (NCp7). The format is biochemical. Conditions: 10 μM compound, 2.8 μM NCp7, pH 7.4, 26° C., 90 minutes. The text has this: The compounds of the present invention cause the extrusion of zinc from the nucleocapsid protein (NCp7) of HIV-1. The NC protein is highly conserved among all retroviruses (South T., Blake P., et al., Biochemistry, 1990;29:7786) and is essential for viral infectivity (Aldovini A. and Young R., J. Virology, 1990;64:1920 and Gorelick R., Nigida S., et al., J. Virology, 1990;64:3207). The zinc is normally held in NC proteins by 1 or 2 zinc fingers. In the case of HIV-1, 2 zinc fingers are present (Summers M., South T., et al., Biochemistry, 1990;29:329) and are involved specifically with the PSI site on viral RNA which controls the packaging of viral RNA. Interference of this packaging causes the formation of non-infectious virions (Dannull J., Surovoy A., et al., EMBO, 1994;13:1525). It has previously been shown that compounds that cause zinc extrusion have potent anti-HIV activity in multiple cell lines and against all retroviruses (Rice W., Schaeffer C., et al., Nature, 1993;361:473).
A fluorescence-based assay has been developed to monitor the ejection of zinc from purified HIV-1 NCp7. The fluorophore, N-(6-methoxy-8-quinolyl)-p-toluenesulfonamide (TSQ), has an increased fluorescent signal upon bonding zinc ion in solution. The NCp7 protein containing 2 Zn-fingers and 2 Zn ions is incubated with drug causing the extrusion of Zn ions. The released Zn is then sequestered by the TSQ and the increased fluorescence monitored relative to control. […] Fluorescence (excitation 355 nm emission 400 nm) was monitored versus time. Controls were the NCp7 under assay conditions without drug, and apo NCp7 (no Zn) with drug. The % Zn extrusion was calculated based on the actual fluorescence measured divided by the fluorescence of all theoretical Zn extruded (5.6 μM)×100.
Table 1 below presents data for several invention compounds evaluated in the zinc extrusion assay described above.

A short description of data set [3]: CEM cell growth inhibition (XTT, noninfected cells). The format is cell-based. Conditions: human, CEM Cell Assay, drug alone, read-out: IC50 (Inhibitory Concentration where drug alone inhibits cell growth). How it is done:
as §1, §2, §3, §4

The nature of data set [4]: H9 cell cytotoxicity (XTT assay, uninfected cells). It is filed as cell-based. The settings on record: human, drug alone, read-out: IC50 (Inhibitory Concentration where drug alone inhibits cell growth). How it is done: (§5) The H9 T-cell line is batch infected with HIV virus at an M0I of 0.01. After 2 hours absorption, the cells are washed, resuspended in RPMI-1640/10% fetal calf serum, and seeded at […] of a 96-well plate. A duplicate plate of uninfected H9 cells is prepared for the cytotoxicity assay. Drugs are serially diluted 1/3.16 in DMSO, transferred to media at an 8× concentration, and then added to the cultures in triplicate. The final DMSO concentration of 0.002 (0.2%).
(§6) Viral production is measured by RT assay and cytotoxicity is measured by XTT assay at 7 days post-infection. The RT assay is performed as a modification of Borroto-Esoda and Boone, J. Virol., 1991;65:1952-1959 and quantitated using a Molecular Dynamics Phosphoimager with Imagequant software. The XTT assay is performed as a modification of Roehm, et al., J. Immuno. Methods., 1991;142:257-265 and quantitated using a molecular Devices Thermomax plate reader with Softmax software.
(§7) Data is electronically transferred to a Microsoft Excell spreadsheet for analysis. The RT assay values equivalent to 50% and 90% inhibition of virus production are calculated from the untreated controls. The concentrations of inhibitor required to produce these values (IC50 and IC90) are interpolated from data points flanking these RT activities. The XTT assay values equivalent to 50% cytotoxicity are calculated from the untreated controls. The concentrations of inhibitor required to produce this value are interpolated from data points flanking these XTT values.

The subject of data set [5] is HIV-1. The experiment in a line: HIV H9 cell assay, anti-HIV-1 activity. The format is cell-based. Conditions: Human immunodeficiency virus 1, H9, 168 h, read-out: EC50 (Effective Concentration which protects cells from viral cytopathic effects).
Excerpt: Another test system utilized to evaluate the invention compounds is called HIV H9 assay. The HIV H9 cell assay measures the inhibitor concentration required to suppress HIV-1 virus replication. In this system, viral growth occurs through multiple rounds of the life-cycle. Any suppression of the replication kinetics results in a geometric decrease in virus production. As a result, this assay is a sensitive means of measuring the ability of a compound to inhibit HIV-1 viral replication.
as §5, §6, §7

A value given as a limit tells only on which side of the number the result lay.

As to `CN(C(=O)c1ccccc1SSc1ccccc1C(=O)N(C)c1ccc(S(N)(=O)=O)cc1)c1ccc(S(N)(=O)=O)cc1` [Example 142], the EC50 in the data set with HIV-1 [1] was determined as 17 µM. Also, the “% Zinc Extrusion Relative to Control” value in data set [2] was found to be 84%. Moreover, the CC50 in data set [3] was above 100 µM.

On to `NC(=O)c1cc(NC(=O)C(F)(F)F)ccc1SSc1ccc(NC(=O)C(F)(F)F)cc1C(N)=O` [Example 74], for which, in the data set on HIV-1 [1], the EC50 stood at 6.3 µM. Moreover, in data set [2], the “% Zinc Extrusion Relative to Control” value was 59%. Moreover, the CC50 in data set [3] amounted to 67 µM.

With `O=C(N[C@@H](C(=O)O)c1ccccc1)c1ccccc1SSc1ccccc1C(=O)N[C@@H](C(=O)O)c1ccccc1` [Example 68, [R-(R*,R*)] (2-{2-[(Carboxy-phenyl-methyl)-carbamoyl]phenyldisulfanyl}-benzoylamino)-phenyl-acetic acid], the EC50 in the data set with HIV-1 [1] is 25 µM. For the same molecule, the “% Zinc Extrusion Relative to Control” value in data set [2] is listed as 89%. Further, in data set [3], the CC50 was above 100 µM.

For `CC(=O)Nc1ccc(S)c(C(N)=O)c1` [Example 10, 5-Acetylamino-2-thiobenzamide], the CC50 at 168 h in data set [4] is above 100 µM. Also, the EC50 in the data set on HIV-1 [5] was found to be 5.4 µM.

Turning to `NC(=O)c1cc(NC(=O)c2ccccc2)ccc1SSc1ccc(NC(=O)c2ccccc2)cc1C(N)=O` [Example 75, 2,2'-Dithiobis[5-(benzoylamino)-benzamide]], the EC50 in the data set on HIV-1 [1] was determined as 5.3 µM. In data set [2], the “% Zinc Extrusion Relative to Control” value is given as 52%. Further, the CC50 in data set [3] was determined as 59 µM.

With `CC(=O)N[C@@H](CSSc1ccccc1C(=O)Nc1ccc(S(N)(=O)=O)cc1)C(=O)O` [Example 134, 2-Acetylamino-3-[2-(4-sulfamoylphenylcarbamoyl)phenyldisulfanyl]-propionic acid], the EC50 in the data set with HIV-1 [1] came to 6.9 µM. Also, in data set [2], the “% Zinc Extrusion Relative to Control” value came out at 77%. Also, the CC50 in data set [3] is above 100 µM.

For `COC(=O)[C@H](CSSc1ccccc1C(=O)Nc1ccc(S(N)(=O)=O)cc1)NC(C)=O` [Example 133, 2-Acetylamino-3-[2-(4-sulfamoylphenylcarbamoyl)phenyldisulfanyl]-propionicacid, methyl ester], in the data set on HIV-1 [1], the EC50 stood at 6.7 µM. Moreover, in data set [2], the “% Zinc Extrusion Relative to Control” value turned out to be 53%. Besides, in data set [3], the CC50 was 69 µM.

Consider `NS(=O)(=O)c1cc(Cl)ccc1SSc1ccc(Cl)cc1S(N)(=O)=O` [Example 148, 2,2'-Dithiobis[5-chloro]-benzenesulfonamide], for which, in the data set on HIV-1 [1], the EC50 was found to be 12 µM. In addition, the “% Zinc Extrusion Relative to Control” value in data set [2] came out at 92%. Besides, the CC50 in data set [3] turned out to be 30 µM.

As to `COC(=O)[C@H](N)C(C)(C)SSc1ccccc1C(=O)Nc1ccc(S(N)(=O)=O)cc1` [Example 139, 2-Amino-3-methyl-3-[2-(4-sulfamoylphenylcarbamoyl)phenyldisulfanyl]-butyric acid, methyl ester], the EC50 with HIV-1 [1] turned out to be 6.9 µM. For the same molecule, the “% Zinc Extrusion Relative to Control” value in data set [2] came to 70%. Moreover, the CC50 in data set [3] was above 100 µM.

For the molecule `CC(SSc1ccccc1C(=O)Nc1ccc(S(N)(=O)=O)cc1)C(=O)NCC(=O)O` (centres unmarked) [Example 135, {2-[2-(4-Sulfamoylphenylcarbamoyl)phenyldisulfanyl]propionylamino}-acetic acid], in the data set on HIV-1 [1], the EC50 came out at 5.8 µM. In data set [2], the “% Zinc Extrusion Relative to Control” value is given as 40%. Besides, in data set [3], the CC50 is above 100 µM.

Turning to `O=C(Nc1ccc(S(=O)(=O)Nc2ncccn2)cc1)c1ccccc1SSc1ccccc1C(=O)Nc1ccc(S(=O)(=O)Nc2ncccn2)cc1` [Example 15, 2,2'-Dithiobis[N-[4-[(2-pyrimidinylamino)sulfonyl]phenyl]-benzamide]], the CC50 at 168 h in data set [4] worked out at 22 µM. Also, the “% Zinc Extrusion Relative to Control” value in data set [2] is on record as 72%. For the same molecule, the EC50 with HIV-1 [5] stood at 2 µM.

As for `NS(=O)(=O)c1ccc(CNC(=O)c2ccccc2SSc2ccccc2C(=O)NCc2ccc(S(N)(=O)=O)cc2)cc1` [Example 12, 2,2'-Dithiobis[N-[[4-(aminosulfonyl)phenyl]methy]benzamide]], in the data set on HIV-1 [1], the EC50 is 0.59 µM. Moreover, in data set [2], the “% Zinc Extrusion Relative to Control” value is given as 27%. In addition, the CC50 in data set [3] was 21 µM.

As for `O=C(O)CCNC(=O)c1ccccc1SSc1ccccc1C(=O)NCCC(=O)O` [Example 76, 3,3'-[Dithiobis(2,1-phenylenecarbonylimino)]bis-propionic acid], the EC50 with HIV-1 [1] amounted to 6.2 µM. Moreover, in data set [2], the “% Zinc Extrusion Relative to Control” value was 82%. Further, in data set [3], the CC50 was above 100 µM.

Turning to `COc1ccc(C(=O)Nc2ccc(S(N)(=O)=O)cc2)c(SSc2cc(OC)ccc2C(=O)Nc2ccc(S(N)(=O)=O)cc2)c1` [Example 19, 2,2'-Dithiobis[N-[4-(aminosulfonyl)phenyl]-4-methoxybenzamide]], the EC50 with HIV-1 [1] was 2.4 µM. In addition, the CC50 in data set [3] is above 100 µM.

As for `CC(SSc1ccccc1C(=O)Nc1ccc(S(N)(=O)=O)cc1)C(=O)O` (centres unmarked) [Example 132, 2-[2-(4-Sulfamoylphenylcarbamoyl)phenyldisulfanyl]propionic acid], the EC50 with HIV-1 [1] came to 2.8 µM. Besides, the “% Zinc Extrusion Relative to Control” value in data set [2] is listed as 70%. The CC50 in data set [3] is above 100 µM.

Regarding `O=C(O)c1ccc(NC(=O)c2ccccc2SSc2ccccc2C(=O)Nc2ccc(C(=O)O)cc2)cc1` [Example 106, 4,4'-[dithiobis(2,1-phenylenecarbonylimino)bisbenzoic acid]], the EC50 in the data set on HIV-1 [1] stood at 1.8 µM. Besides, the CC50 in data set [3] came to 22 µM.

In the case of `O=C(O)Cc1ccc(NC(=O)c2ccccc2SSc2ccccc2C(=O)Nc2ccc(CC(=O)O)cc2)cc1` [Example 108, (4-{2-[2-(4-Carboxymethyl-phenylcarbamoyl)-phenyldisulfanyl]-benzoylamino}-phenyl)-acetic acid], the EC50 in the data set on HIV-1 [1] amounted to 5.9 µM. Also, the CC50 in data set [3] worked out at 61 µM.

(Values after patent US5734081A, “Arylthio compounds” (Warner-Lambert Company, priority 1995, dated 1998).)
